Experimental data as given in patent US7273848B2, “Apolipoprotein A-I agonists and their use to treat dyslipidemic disorders” (priority 1997, dated 2007).
Non-standard residues stand in square brackets, D forms with d. Residues, ends and D or L forms follow the SMILES beside them. No end group written: not given here. Aib = CC(C)(N)C(=O)O

Target: T1, LCAT (purified from human plasma) (Homo sapiens, UniProt P04180)
T1 construct: from tissue; host or cells: human plasma
T1 sequence (P04180 25-440): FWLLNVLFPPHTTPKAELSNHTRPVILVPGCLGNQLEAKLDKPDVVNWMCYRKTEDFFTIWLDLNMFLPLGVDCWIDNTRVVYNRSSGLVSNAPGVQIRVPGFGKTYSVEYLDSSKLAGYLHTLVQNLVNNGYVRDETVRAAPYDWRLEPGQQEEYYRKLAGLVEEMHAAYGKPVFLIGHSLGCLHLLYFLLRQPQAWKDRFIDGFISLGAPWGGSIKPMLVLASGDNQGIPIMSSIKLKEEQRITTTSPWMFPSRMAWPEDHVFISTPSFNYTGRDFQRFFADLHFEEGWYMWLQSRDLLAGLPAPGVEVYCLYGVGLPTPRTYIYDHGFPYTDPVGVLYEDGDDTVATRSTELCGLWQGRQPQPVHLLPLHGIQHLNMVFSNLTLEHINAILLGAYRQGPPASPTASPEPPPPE
Experiment: LCAT activation assay
Assay type: biochemical
Conditions: LCAT activation as compared with native human ApoA-I (= 100%), equivalent masses
Description: The peptides synthesized as described in Section 6, supra, were analyzed in vitro for their ability to activate LCAT. In the LCAT assay, substrate vesicles (small unilamellar vesicles or “SUVs”) composed of egg phophatidylcholine (EPC) or 1-Palmitoyl-2-oleyl-phosphatidyl-choline (POPC) and radiolabelled cholesterol are preincubated with equivalent masses either of peptide or ApoA-I (isolated from human plasma). The reaction is initiated by addition of LCAT (purified from human plasma). Native ApoA-I, which was used as positive control, represents 100% activation activity. “Specific activity” (i.e., units of activity (LCAT activation)/unit of mass) of the peptides can be calculated as the concentration of peptide that achieves maximum LCAT activation. For example, a series of concentrations of the peptide (e.g., a limiting dilution) can be assayed to determine the “specific activity” for the peptide—the concentration which achieves maximal LCAT activation (i.e., percentage conversion of cholesterol to cholesterol ester) at a specific timepoint in the assay (e.g., 1 hr.). When plotting percentage conversion of cholesterol at, e.g., 1 hr., against the concentration of peptide used, the “specific activity” can be identified as the concentration of peptide that achieves a plateau on the plotted curve.
The vesicles used in the LCAT assay are SUVs composed of egg phosphatidylcholine (EPC) or 1-palmitoyl-2-oleyl-phosphatidylcholine (POPC) and cholesterol with a molar ratio of 20:1. To prepare a vesicle stock solution sufficient for 40 assays, 7.7 mg EPC (or 7.6 mg POPC; 10 μmol), 78 μg (0.2 μmol) 4-^14C-cholesterol, 116 μg cholesterol (0.3 μmol) are dissolved in 5 ml xylene and lyophilized. Thereafter 4 ml of assay buffer is added to the dry powder and sonicated under nitrogen atmosphere at 4° C. Sonication conditions: Branson 250 sonicator, 10 mm tip, 6×5 minutes; Assay buffer: 10 mM Tris, 0.14 M NaCl, 1 mM EDTA, pH 7.4). The sonicated mixture is centrifuged 6 times for 5 minutes each time at 14,000 rpm (16,000×g) to remove titanium particles. The resulting clear solution is used for the enzyme assay.
For the LCAT purification, dextran sulfate/Mg^2+ treatment of human plasma is used to obtain lipoprotein deficient serum (LPDS), which is sequentially chromatographed on Phenylsepharose, Affigelblue, ConcanavalinA sepharose and anti-ApoA-I affinity chromatography, as summarized for a representative purification in TABLE IX, below: […]

Molecule	ACTIVITY (%) LCAT
PVLDLLRELLNELLEALKQKLK [compound 16]	59%
PVLELFDNLLEKLLEALQKKLR [compound 178]	9%
CC(C)C[C@H](NC(=O)[C@H](C)NC(=O)[C@H](CCCCN)NC(=O)[C@H](CC(C)C)NC(=O)C(C)(C)NC(=O)[C@H](CCC(=O)O)NC(=O)[C@H](CC(N)=O)NC(=O)[C@H](CC(C)C)NC(=O)[C@H](CCCCN)NC(=O)[C@H](CCC(=O)O)NC(=O)[C@H](CCCNC(=N)N)NC(=O)[C@H](Cc1ccccc1)NC(=O)[C@H](CCC(=O)O)NC(=O)[C@H](CC(=O)O)NC(=O)[C@H](CC(C)C)NC(=O)[C@@H](NC(=O)[C@@H]1CCCN1)C(C)C)C(=O)N[C@@H](CCCCN)C(=O)N[C@@H](CCC(N)=O)C(=O)N[C@@H](CCCCN)C(=O)N[C@@H](CC(C)C)C(=O)N[C@@H](CCCCN)C(=O)O [compound 93, PVLDEFREKLNEXLKALKQKLK] (H-PVLDEFREKLNE[Aib]LKALKQKLK-OH)	5%
CC(C)C[C@H](NC(=O)[C@H](C)NC(=O)[C@H](CCC(=O)O)NC(=O)[C@H](CC(C)C)NC(=O)[C@H](CC(C)C)NC(=O)[C@H](CCC(=O)O)NC(=O)[C@H](CC(N)=O)NC(=O)[C@H](CC(C)C)NC(=O)[C@H](CC(C)C)NC(=O)[C@H](CCC(=O)O)NC(=O)[C@H](CCCNC(=N)N)NC(=O)[C@H](Cc1ccccc1)NC(=O)[C@H](CC(C)C)NC(=O)[C@H](CC(=O)O)NC(=O)[C@H](CC(C)C)NC(=O)[C@H](NC(=O)[C@H]1CCCN1)C(C)C)C(=O)N[C@@H](CCCCN)C(=O)N[C@@H](CCC(N)=O)C(=O)N[C@@H](CCCCN)C(=O)N[C@@H](CC(C)C)C(=O)N[C@@H](CCCCN)C(=O)O [compound 48]	22%
PVLDLFRELLNELLE [compound 97]	4%
PVLDAFRELGEALLQLKK [compound 226]	1%
PVLDLFREGWEELKQKLK [compound 224]	8%
CSCC[C@H](NC(=O)C(C)(C)NC(=O)[C@H](CCC(=O)O)NC(=O)[C@H](CC(N)=O)NC(=O)[C@H](CC(C)C)NC(=O)[C@H](CCCCN)NC(=O)[C@H](CCC(=O)O)NC(=O)[C@H](CCCNC(=N)N)NC(=O)[C@H](Cc1ccccc1)NC(=O)[C@H](CCC(=O)O)NC(=O)[C@H](CC(=O)O)NC(=O)[C@H](CC(C)C)NC(=O)[C@@H](NC(=O)[C@@H]1CCCN1)C(C)C)C(=O)N[C@@H](CCC(=O)O)C(=O)N[C@@H](C)C(=O)N[C@@H](CC(C)C)C(=O)N[C@@H](CCCCN)C(=O)N[C@@H](CCC(N)=O)C(=O)N[C@@H](CCCCN)C(=O)N[C@@H](CC(C)C)C(=O)N[C@@H](CCCCN)C(=O)O [compound 114, PVLDEFREKLNEXMEALKQKLK] (H-PVLDEFREKLNE[Aib]MEALKQKLK-OH)	0%
Ac-PVLDLFRELLNELLQKLK-NH2 [compound 218]	29%
CC(C)C[C@H](NC(=O)[C@H](C)NC(=O)[C@H](Cc1c[nH]c2ccccc12)NC(=O)[C@H](CC(C)C)NC(=O)C(C)(C)NC(=O)[C@H](CCC(=O)O)NC(=O)[C@H](CC(N)=O)NC(=O)[C@H](CC(C)C)NC(=O)[C@H](CC(C)C)NC(=O)[C@H](CCC(=O)O)NC(=O)[C@H](CCCNC(=N)N)NC(=O)[C@H](Cc1ccccc1)NC(=O)[C@H](CC(C)C)NC(=O)[C@H](CC(=O)O)NC(=O)[C@H](CC(C)C)NC(=O)[C@@H](NC(=O)[C@@H]1CCCN1)C(C)C)C(=O)N[C@@H](CCCCN)C(=O)N[C@@H](CCC(N)=O)C(=O)N[C@@H](CCCCN)C(=O)N[C@@H](CC(C)C)C(=O)N[C@@H](CCCCN)C(=O)O [compound 72, PVLDLFRELLNEXLWALKQKLK] (H-PVLDLFRELLNE[Aib]LWALKQKLK-OH)	11%
PVLELFENLLEKLLDLLQKKLK [compound 171]	16%
GVLDLFRELLNELLEALKQKLKK [peptide 2]	105%
Ac-AVLDLFRELLEELKQKLK-NH2 [compound 203]	66%
CC(C)C[C@H](NC(=O)[C@H](C)NC(=O)[C@H](CCC(=O)O)NC(=O)[C@H](CC(C)C)NC(=O)C(C)(C)NC(=O)[C@H](CCC(=O)O)NC(=O)[C@H](CC(N)=O)NC(=O)[C@H](CC(C)C)NC(=O)[C@H](CCCCN)NC(=O)[C@H](CCC(=O)O)NC(=O)[C@H](CCCNC(=N)N)NC(=O)[C@H](Cc1ccccc1)NC(=O)[C@H](CCC(=O)O)NC(=O)[C@H](CC(=O)O)NC(=O)[C@@H](N)CC(C)C)C(=O)N[C@@H](CCCCN)C(=O)N[C@@H](CCC(N)=O)C(=O)N[C@@H](CCCCN)C(=O)N[C@@H](CC(C)C)C(=O)N[C@@H](CCCCN)C(=O)O [compound 82, ~~LDEFREKLNEXLEALKQKLK] (H-LDEFREKLNE[Aib]LEALKQKLK-OH)	8%
PVLELFKELLEELKQKLK [compound 216]	35%
PVLDLFRELLNELWQKLK [compound 219]	24%

Tested on: not listed separately
Experiment: Circular dichroism helicity determination
Assay type: physicochemical
Conditions: percent helicity; 5 μM peptide, 90% vol TFE, 37° C.
Description: Far UV circular dichroism spectra were recorded between 190 and 260 nm (in 0.5 nm or 0.2 nm increments) with a AVIV62DS spectrometer (AVIV Associates, Lakewood, N.J., USA) equipped with a thermoelectric cell holder and sample changer. The instrument was calibrated with (+)-10-[…]. Between one and three scans were collected for each sample, using 10 cm, 5 cm, 1 cm and 0.1 cm path length quartz Suprasil cells, respectively, for peptide concentrations of 10^−7 M to 10^−4 M. The bandwidth was fixed at 1.5 nm and the scan speed to 1s per wavelength step. The reported data are the mean of at least 2 or 3 independent measurements.
After background substraction, spectra were converted to molar ellipticity (θ) per residue in deg. […] dmol^−1. The peptide concentration was determined by amino acid analysis and also by absorption spectrometry on a Perkin Elmer Lambda 17 UV/Visible spectrophotometer when the peptide contained a chromophore (tryptophane, dansyl, naphtylalanine).
CD spectra were obtained with free, unbound peptide (5 μM in 5 mM phosphate buffer, pH 7.4); with peptide-SUV complexes (20:1 EPC:Chol., Ri=30 and Ri=50); with peptide-micelle complexes (1-myristoyl-2-hydroxy-sn-glycero-3-phosphatidyl choline, Ri=100); and with free, unbound peptide in the presence of 2,2,2-trifluoroethanol (TFE) (5 μM peptide, 90% vol TFE).
The SUVs were obtained by dispersing the lipids (10 mM, 20:1 EPC:Chol., Avanti Polar Lipids, AL) in phosphate buffer (5 mM, pH 7.4) with bubbling N2 for 5 min., followed by sonication (1.5 hr.) in a bath sonicator. The homogeneity of the preparation was checked by FPLC.
The micelles were obtained by dispersing the lipid (6 mM 1-myristoyl-2-hydroxy-sn-glycero-3-phosphatidyl choline, Avanti Polar Lipids, AL) in phosphate buffer (5 mM, pH 7.4) with bubbling N2 for 5 min., followed by vortexing.
To obtain the peptide-SUV complexes, SUVs were added to the peptide (5 μM in 5 mM phosphate buffer, pH 7.4) at a phospholipid-peptide molar ratio (Ri) of 30 or 50.
To obtain the peptide-micelle complexes, micelles were added to the peptide (5 μM in 5 mM phosphate buffer, pH 7.4) at a Ri of 100.
All spectra were recorded at 37° C.
The degree of helicity of the peptides in the various conditions was determined from the mean residue ellipticity at 222 nm (Chen et al., 1974, Biochemistry 13:3350-3359) or by comparing the CD spectra obtained to reference spectra available on databases (16 helical reference spectra from Provencher & Glockner, 1981, Biochemistry 20:33-37; denatured protein reference spectra from Venyaminov et al., 1993, Anal. Biochem. 214:17-24) using the CONTIN curve-fitting algorithm version 2DP, CD-1 pack (August 1982) (Provencher, 1982, Comput. Phys. Commun. 27:213-227, 229-242). Acceptable fit was determined using the statistical analysis methodology provided by the CONTIN algorithm. The error of all methods was ±5% helicity.

Molecule	He (%) TFE
Ac-PVLDEFREKLNEELEALKQKLK-NH2 [peptide 75, reference compound]	55%

Same assay, conditions: percent helicity; free, unbound peptide 5 μM in 5 mM phosphate buffer, pH 7.4, 37° C.

Molecule	He (%) free
Ac-PVLDEFREKLNEELEALKQKLK-NH2 [peptide 75, reference compound]	18%

Same assay, conditions: percent helicity; peptide-SUV complexes (20:1 EPC:Chol., Ri=30 and Ri=50), 37° C.

Molecule	He (%) SUVs
Ac-PVLDEFREKLNEELEALKQKLK-NH2 [peptide 75, reference compound]	23%

Same assay, conditions: percent helicity; peptide-micelle complexes, Ri=100, 37° C.

Molecule	He (%) mics
Ac-PVLDEFREKLNEELEALKQKLK-NH2 [peptide 75, reference compound]	28%
